US5714155A, “Ethylenediamine derivative in a cosmetic or dermatological composition, and composition containing in particular a product having an irritant side effect” (Societe L'oreal S.A., priority 1994, dated 1998)

Tested on: contraction of guinea pig ileum by substance P
Test: Antagonism of the in vitro contraction of guinea pig ileum by substance P
Assay type: cell-based
Settings: for substance P antagonism (conclusion of the tests): conclusion from NK1 binding and guinea pig ileum tests
Method: b). Model of antagonism of the in vitro contraction of guinea pig ileum by substance P (10 nM) according to the technique described by Dion et al., Life Sci. 41: 2269-78 (1987) and Patacchini et al., Eur. J. Pharmacol. 215: 93-8 (1992).

Cc1cc(C)cc(CNCCNCc2cc(C)cc(C)c2)c1 [Example 1, N,N'-bis(3,5-dimethylbenzyl)ethylenediamine]
inhibition at 1 µM (Cavia porcellus, 1 μM, substance P 10 nM): -24%
inhibition at 10 µM (Cavia porcellus, 10 μM, substance P 10 nM): -92%
inhibition at 100 µM (Cavia porcellus, 100 μM, substance P 10 nM): -100%
substance P antagonism (conclusion of the tests): substance P antagonists

COc1cc(CNCCNCc2cc(OC)cc(OC)c2)cc(OC)c1 [Example 2, N,N'-bis(3,5-dimethoxybenzyl)ethylenediamine]
substance P antagonism (conclusion of the tests): substance P antagonists
